Data published in paper PMC10151334, “Anti-proliferative potential and oxidative reactivity of thermo-oxidative degradation products of stigmasterol and stigmasteryl esters for human intestinal cells” (Scientific Reports, 2023).
Where two headings read alike, the source gives them in different places.

Assays:
[1] = system: FHs 74 Int cells; design: method as in PMID 31883991; details: normal human small intestine cells; cited from earlier work
[2] = system: S. typhimurium TA98; assay: Bacterial reverse mutation assay (Ames test), strain TA98; details: for reversion of mutations in TA98: 40 μg/mL, presence and absence of the microsomal fraction
Procedure: (§1) Potential mutagenicity or pro-mutagenicity of non-heated and heated ST, ST-LA, and ST-OA was determined using the bacterial reverse mutation assay (Ames test) with Salmonella enterica subsp. enterica ser. typhimurium tester strains TA98, TA100, and TA102, which were obtained from the Polish Collection of Microorganisms of the Institute of Immunology and Experimental Therapy of the Polish Academy of Sciences in Wroclaw.
(§2) Mutagenicity experiments were performed in the liquid pre-incubation assay, without and with metabolic activation by supplying Aroclor 1254-induced rat liver microsomal fraction (S9, Sigma-Aldrich) with NADP and cofactors for NADPH-supported oxidation, according to the procedure described by Mortelmans and Zeiger[39]. Briefly, reaction mixtures, consisting of 12-h bacterial culture, non-heated and heated compound (ST, ST-LA, ST-OA) at a concentration of 40 μg, 0.2 M phosphate buffer (pH 7.4), and alternatively S9 activating mixture, were pre-incubated at 37 °C for 20 min. […] The mutagen, 2-aminoanthracene (5 μg) (Sigma-Aldrich), was a positive control in pro-mutagenicity experiments. After pre-incubation, the reaction mixtures were added to the top agar supplemented with traces of histidine and biotin and poured onto the plates covered with minimum glucose agar. The cultures were incubated for 48 h at 37 °C, and the number of revertants (His+) colonies was counted manually.
(§3) Compounds with MI ≥ 2 can be recognized as potentially mutagenic.

[3] = system: caspase 3/7 activity in CCD 841 CoN cells; assay: Caspase 3/7 activity assay (APO-One Homogeneous); format: cell-based, human; details: 40 μg/mL, 24 h
Procedure: CCD 841 CoN cells were grown in black 96-well plates at an initial cell density of 2 × 10^4 cells/cm^2 for 24 h under standard culture conditions. The cell cultures were treated for 24 h with ST, ST-OA, and ST-LA at a 40 μg/mL dose. After treatment, caspase-3/7 activity was determined using the APO-One Homogeneous Caspase-3/7 Assay (Promega Corporation, Wisconsin, USA), which is based on the proteolytic cleavage of C-terminal side of aspartate residue in the DEVD peptide substrate by caspase 3/7 into fluorescent rhodamine 110 (R110). Analysis of caspase 3/7 activity was carried out following the manufacturer's instructions. Briefly, the cells after the treatment were incubated at room temperature with Apo-ONE® Caspase-3/7 Reagent—bifunctional cell lysis/caspase activity buffer combined with the pro-fluorescent caspase-3/7 substrate Z-DEVD-R110. After 4-h incubation, fluorescence was measured at an excitation wavelength of 485 nm and an emission wavelength of 530 nm using a Tecan M200 Infinite microplate reader. Data obtained were normalized to cellular protein content, quantified by BCA assay (Pierce® BCA Protein Assay Kit, Thermo Scientific Inc., USA) according to the manufacturer's protocol.

[4] = system: CCD 841 CoN cells; assay: MultiTox-Fluor Multiplex Cytotoxicity Assay (live and dead cell fluorescence); format: cell-based; details: doses up to 40 μg/mL, 48 h
Procedure: The normal human diploid CCD 841 CoN cell line (ATCC® CRL-1790™) isolated from colon mucosa was obtained from American Type Culture Collection (ATCC, Manassas, VA, USA). Cells were cultured in Dulbecco’s Modified Eagle’s Medium (DMEM, Sigma-Aldrich) supplemented with fetal bovine serum (FBS; Gibco BRL, Grand Island, NY, USA) to a final concentration of 10% and maintained at 37 °C in a humidified atmosphere with 5% CO2.
In the cytotoxicity experiments, CCD 841 CoN cells were seeded in 96-well plates at an initial density of 2.0 × 10^4 cells/cm^2 and incubated for 24 h. […] Control culture contained the vehicle at the amount corresponding to the sample analyzed.
The Multitox-Fluor Multiplex Cytotoxicity Assay (Promega GmbH, Mannheim, Germany) was applied to determine the relative number of live and dead cells in the CCD 841 CoN cell cultures treated with the analyzed compounds. The assay determined live- and dead-cell protease activities using two fluorogenic peptide substrates, cell-permeant (glycyl-phenylalanyl-amino fluorocoumarin; GF-AFC) and cell-impermeant (bis-alanyl-alanyl-phenylalanyl-rhodamine 110; bis-AAF-R110). After treatment, the cells were incubated with GF-AFC and bis-AAF-R110 substrates for 60 min at 37 °C. The live- and dead-cell proteases produced AFC and R110 products, measured using a Tecan M200 Infinite microplate reader (Tecan Group Ltd., Männedorf, Switzerland) at different excitation (400 nm and 485 nm) and emission (505 nm and 520 nm) spectra. The assay was conducted according to the manufacturer’s instructions.

[5] = system: S. typhimurium TA102; assay: Bacterial reverse mutation assay (Ames test), strain TA102; details: for effect on TA102 revertants: 40 μg/mL, regardless of metabolic activation (+/− S9)
Procedure: as §1, §2, §3

[6] = system: THLE-2 cells; design: method as in PMID 31883991; details: normal human liver cells; cited from earlier work
[7] = system: S. typhimurium TA100; details: for reversion of mutations in TA100: 40 μg/mL, presence and absence of the microsomal fraction; for Mutagenic index TA100: reference mutagen
Procedure: as §1, §2, §3

[8] = Thermo-oxidative treatment at 180 °C for 8 h, degradation of the compound; format: physicochemical; details: heated at 180 °C for 8 h under oxygen atmosphere
Procedure: ST, ST-OA, and ST-LA (50 mg each) were placed separately in glass vials and heated at 180 °C for 8 h under an oxygen atmosphere. After thermo-oxidative treatment, the tested compounds were stored at − 20 °C until chemical and biological analyses. The non-heated and heated ST and its esters were analyzed to detect degradation products and oxyderivatives. Analytical methods were described in the article published previously.

[9] = system: CCD 841 CoN cells; assay: Cell cycle analysis by flow cytometry (propidium iodide); format: cell-based, human; details: 40 μg/mL, 24 h
Procedure: CCD 841 CoN cells were grown in 6-well plates at an initial cell density of 2 × 10^4 cells/cm^2 for 24 h under standard culture conditions. The cells were treated for 24 h with the analyzed compounds at a concentration of 40 μg/mL; the high dose was applied because of the relatively low cytotoxic potential of ST-OA and ST-LA as determined in cytotoxicity studies. In addition, the cells were exposed to 0.05 μM camptothecin (Sigma-Aldrich) as a positive reference compound known to modulate cell cycle progression.
After treatment, the cells were harvested by trypsinization, washed in PBS, and fixed in 70% ethanol. Then, the cells were stained with 50 μg/mL propidium iodide in the presence of 100 μg/mL RNase (Sigma-Aldrich). The sample preparation method and staining protocol were described previously. The cycle phase distribution was analyzed with an Amnis™ FlowSight™ flow cytometer (Luminex Corporation, TX, USA).

[10] = system: CCD 841 CoN cells; assay: DNA synthesis, BrdU incorporation (Cell Proliferation ELISA); format: cell-based, human; details: 10-40 μg/mL, 48 h
Procedure: CCD 841 CoN cells were grown in black 96-well plates at an initial cell density of 2 × 10^4 cells/cm^2 for 24 h under standard culture conditions. The cells were treated with ST (2.5, 5, 10, 20, and 40 μg/mL) and its esters ST-OA and ST-LA (10, 20, and 40 μg/mL) for 48 h. DNA synthesis was measured by incorporating thymidine analog 5-bromo-2′-deoxyuridine (BrdU) into newly synthesized DNA using the Cell Proliferation ELISA kit according to the protocol recommended by the manufacturer (Roche Diagnostics GmbH, Mannheim, Germany). Briefly, BrdU was added to the treated cells 24 h before the end of the exposure to the ST, ST-OA, and ST-LA (final BrdU concentration of 10 μM). After treatment, BrdU-labeled DNA was denatured (30 min, 20 °C). Then, BrdU was bonded with a peroxidase-conjugated anti-BrdU antibody (90 min, 20 °C) and reacted with the peroxidase substrate. The absorbance measurement was done with a stop solution (1 M H2SO4) at 450 nm with reference wavelength 690 nm using a Tecan M200 Infinite microplate reader.

[11] = system: CCD 841 CoN cells; assay: DNA damage detection, comet assay (SCGE); format: cell-based, human; details: reference oxidant, 100 μM, 30 min
Procedure: The cells were grown at 6-well plates at the established density and standard culture conditions and exposed to the non-heated and heated ST, ST-OA, and ST-LA for 48 h. The non-treated cells and cells treated with H2O2 (100 μM, 30 min) to induce oxidative DNA damage constituted the negative and positive controls, respectively. After treatment, cells were analyzed for DNA damage using a single cell gel electrophoresis (SCGE) called comet assay, described in detail previously. Briefly, harvested cells suspended in low melting point agarose were put onto microscope slides pre-coated with normal melting point agarose and subjected sequentially to lysis, alkaline electrophoresis (pH > 13), and neutralization ([…]). The cells were stained with SYBRGold (Molecular Probes), viewed under a fluorescence microscope (Axiovert 200, Zeiss, Carl Zeiss, Gottingen, Germany), and analyzed using CometScore™ software (TriTek Corp., Sumerduck, VA, USA). At least 100 cells were analyzed on a microscope slide; 300 cells were considered for DNA damage detection in one sample. Data were expressed as the mean percentage of DNA content in the comet tail. […] Based on the comets' categorization, the total comet score (TCS) was calculated according to the formula: TCS = 0(n) + 1(n) + 2(n) + 3(n) + 4(n), where “n” is the number of cells in each comet class (0–4)[45].

[12] = with metabolic activation (+ S9), reference mutagen

Compound	cytotoxic effects [1]	reversion of mutations in TA98 [2]	caspase 3/7 activity [3]	effect on colon cell viability / cytotoxicity [4]	effect on TA102 revertants [5]	cytotoxic effects [6]	reversion of mutations in TA100 [7]	Fatty acid residue depletion (%) [8]	Sterol moiety depletion (%) [8]	subpopulation of dead cells with lower/reduced DNA content [9]	DNA synthesis inhibition [10]	other results
CCCCCCCC/C=C\CCCCCCCC(=O)OC1CCC2(C)C(=CCC3C2CCC2(C)C(C(C)/C=C/C(CC)C(C)C)CCC32)C1 (stereo not shown) [ST-OA, stigmasteryl oleate]	no cytotoxic effects	did not induce the reversion of mutations	slightly increased caspase-3/7 activities	did not affect colon cell viability	did not affect the number of TA102 revertants	no cytotoxic effects	did not induce the reversion of mutations	77.14 ± 5.3%	88.8 ± 3.5%	Slight expanding the cell subpopulation with reduced DNA content	not observed	
CCCCC/C=C\C/C=C\CCCCCCCC(=O)OC1CCC2(C)C(=CCC3C2CCC2(C)C(C(C)/C=C/C(CC)C(C)C)CCC32)C1 (stereo not shown) [ST-LA, stigmasteryl linoleate]	no cytotoxic effects	did not induce the reversion of mutations	slightly increased caspase-3/7 activities	did not affect colon cell viability	did not affect the number of TA102 revertants	no cytotoxic effects	did not induce the reversion of mutations	31.11 ± 3.2%	71.6 ± 6.6%	Slight expanding the cell subpopulation with reduced DNA content	not observed	
[N-]=[N+]=[N-].[Na+] [Sodium azide, sodium azide, reference compound]												Mutagenic index TA100 ([7]; without metabolic activation (− S9), dose printed with the label): 13.55; Mutagenic index TA100 ([7]; without metabolic activation (− S9), dose printed with the label, listed as sodium azide): 13.6
OO [H2O2, reference compound]												total comet score (TCS) [11]: 263.1 ± 29.4
Nc1ccc2cc3ccccc3cc2c1 [2-Aminoanthracene, 2-aminoanthracene, reference compound]												Mutagenic index TA98 [2, 12]: 6.00; Mutagenic index TA102 [5, 12]: 2.95; Mutagenic index TA100 ([7]; with metabolic activation (+ S9)): 2.03
